Where a name gives a salt, the structure may show the parent alone.
Columns and labels:
[1] = system: pentagastrin stimulated gastric acid secretion; experiment: Rat lumen perfused stomach (pentagastrin stimulated gastric acid secretion); format: in vivo; conditions: iv, i.v. administration, 10 μmole/kg, read-out: Rat G.S. % inhibition @ 10 μmole/kg
Excerpt: Using a modification of the procedure described by Ghosh and Schild (Br. J. Pharmacology, 13, 54, 1958), the compounds of the following Examples were found on i.v. administration at a concentration of 10 μmole/kg to cause an inhibition of pentagastrin stimulated gastric acid secretion as indicated in the following Table.

[2] = system: isolated rat osteoclasts; experiment: Bone resorption by isolated rat osteoclasts on cortical bone slices; format: cell-based; conditions: Osteoclast, 18 hours, control = 100 ± 27, Mean ± SEM, n = 12
Protocol: Bone resorption was measured by the actions of isolated rat osteoclasts on cortical bone slices (Zaidi et al Quarterly Journal of Experimental Physiology 1988 73:471-485). Newborn Wistar rats were killed by decapitation and their femora and tibiae removed. Osteoclasts were mechanically disaggregated by curetting the bones into medium followed by agitation with a pipette. Osteoclasts were separated from other cells by sedimentation onto bone slices (15 minutes, 37°) after which the slices were removed and gently washed. The bone slices were then incubated in the presence of test compounds (37°, 10% humidified CO2, 18 hours) and fixed with glutaraldehyde. The degree of bone resorption was then assessed by the area of erosions produced by the osteoclasts using scanning electron microscopy. Data were meaned from measurements of 6 bone slices in each of two independent experiments.
Test compounds were dissolved in ethanol which was also added to control incubations (1%) in the absence of compound.

Compound | inhibition in vivo at 10 µmol/kg [1] [%] | other results
COc1cccc2c(Nc3ccccc3C)nc(N)nc12 [Example 1, 2-amino-8-methoxy-4-(2-methylphenylamino)quinazoline] | 60 | 
COc1cccc2c(NCc3ccccc3)nc(N)nc12 [Example 2, 2-amino-8-methoxy-4-benzylaminoquinazoline] | 25 | 
COc1ccc(Nc2nc(N)nc3c(OC)cccc23)c(C)c1 [Example 3, 2-amino-8-methoxy-4-(2-methyl-4-methoxyphenylamino)quinazoline] | 16 | 
COc1cccc2c(NCc3ccccc3C)nc(N)nc12 [Example 4, 2-amino-8-methoxy-4-(2-methylbenzylamino)quinazoline] | 37 | 
COc1cccc2c(Nc3ccccc3C)nc(N(C)C)nc12 [Example 5, 2-dimethylamino-8-methoxy-4-(2-methylphenylamino)quinazoline] | 37 | 
Cc1ccccc1Nc1nc(N)nc2c(C)cccc12 [Example 6, 2-amino-8-methyl-4-(2-methylphenylamino)quinazoline] | 48 | 
Cc1ccccc1Nc1nc(N)nc2ccccc12 [Example 7, 2-amino-4-(2-methylphenylamino)quinazoline] | 20 | 
Cc1ccccc1Nc1nc(N2CCCC2)nc2ccccc12 [Example 8, 2-pyrrolidino-4-(2-methylphenylamino)quinazoline] | 17 | 
CCc1ccc2nc(N)nc(Nc3ccccc3C)c2c1 [Example 11, 2-amino-4-(2-methylphenylamino)-6-ethylquinazoline] | 28 | 
CNc1nc(Nc2ccccc2C)c2cccc(OC)c2n1 [Example 13, 2-methylamino-8-methoxy-4-(2-methylphenylamino)quinazoline] | 20 | 
COc1cccc2c(Nc3ccccc3C)nc(N3CCCC3)nc12 [Example 15, 2-pyrrolidino-8-methoxy-4-(2-methylphenylamino)quinazoline] | 31 | 
Cc1ccccc1Nc1nc(NCCc2ccccc2)nc2ccccc12 [Example 16, 2-phenylethylamino-4-(2-methylphenylamino)quinazoline] | 31 | 
COc1ccccc1Nc1nc(N)nc2c(OC)cccc12 [Example 18, 2-amino-8-methoxy-4-(2-methoxyphenylamino)quinazoline] | 12 | 
CN(c1ccccc1)c1nc(N(C)c2ccccc2)c2ccccc2n1 [Example 20, 2,4-Bis-(N-methylphenylamino)quinazoline hydrochloride] | 72 | 
COc1cccc2c(Nc3ccccc3C)nc(N(C)c3ccccc3)nc12 [Example 21, 2-(N-methylphenylamino)-4-(2-methylphenylamino)-8-methoxyquinazoline] | 37 | 
Cc1ccccc1Nc1nc(N(C)c2ccccc2)nc2ccccc12 [Example 22, 2-(N-methylphenylamino)-4-(2-methylphenylamino)quinazoline hydrochloride] | 27 | 
COc1cccc2c(N(C)c3ccccc3)nc(Nc3ccccc3C)nc12 [Example 24, 4-(N-methylphenylamino)-2-(2-methylphenylamino)-8-methoxyquinazoline] | 97 | 
Cc1ccccc1CNc1nc(N)nc2ccccc12 [Example 25, 2-amino-4-(2-methylbenzylamino)quinazoline] | 24 | 
Cc1ccccc1Nc1nc(N(C)c2ccccc2)c2ccccc2n1 [Example 26, 2-(2-methylphenylamino)-4-(N-methylphenylamino)quinazoline hydrochloride] | 79 | 
CN(c1ccccc1)c1nc(Nc2ccccc2)nc2ccccc12 [Example 27, 2-phenylamino-4-(N-methylphenylamino)quinazoline hydrochloride] | 71 | 
COc1cccc2c(N(C)c3ccccc3)nc(N)nc12 [Example 29, 2-amino-4-(N-methylphenylamino)-8-methoxyquinazoline hydrochloride] | 13 | 
Cc1cc(O)ccc1Nc1nc(N(C)c2ccccc2)c2ccccc2n1 [Example 30, 2-(4-hydroxy-2-methylphenyl)amino1-4-(N-methylphenylamino) quinazoline hydrochloride] | 23 | 
Cc1ccccc1CNc1nc(N(C)c2ccccc2)c2ccccc2n1 [Example 31, 2-(2-methvlbenzylamino)-4-(N-methylphenylamino)quinazoline hydrochloride] | 8 | 
Cc1cc(F)ccc1Nc1nc(N(C)c2ccccc2)c2ccccc2n1 [Example 32, 2-(2-methyl-4-fluorophenyl)amino]-4-(N-methylphenylamino)quinazoline hydrochloride] | 96 | 
Cc1cc(F)ccc1Nc1nc(N(C)c2ccccc2)c2cc(O)ccc2n1 [Example 56, 4-(N-methylphenylamino)-2-[(2-methyl-4-fluorophenyl)amino]-6-hydroxyquinazoline hydrochloride] |  | activity at 10 µM ([2]; 10 μM): 7 ± 4%; activity at 100 µM ([2]; 100 μM): 7%

From patent US5064833A, “Substituted quinazoline derivatives for use in gastrointestinal diseases” (Smithkline Beecham Intercredit B.V., priority 1989, dated 1991)
